Measurements taken from paper PMC9645390, “Amphiphilic stilbene derivatives attenuate the neurotoxicity of soluble Aβ42 oligomers by controlling their interactions with cell membranes” (Chemical Science, 2022).

System: Aβ fibrils–SH-SY5Y cell membrane interactions
Assay: Confocal imaging of Aβ fibrils binding to SH-SY5Y cell membranes
Assay type: cell-based, human
Settings: 5 µM fibrils + 5 µM compound, 24 h
Excerpt: Encouraged by the ability of the developed amphiphilic compounds to attenuate the neurotoxicity of Cu–Aβ species, we sought out to study the possible molecular mechanisms for this beneficial effect. The Aβ oligomers were reported to interact with cell membranes in various ways, such as binding to receptors on cell membranes,[49,50] inserting into membranes,[51] or even showing cellular uptake via endocytosis.[52] The abnormal interactions between Aβ oligomers and neuron cells, which could disrupt the neuronal ion homeostasis and neuron cell membrane integrity, might be why Aβ oligomers are highly neurotoxic.[53–55] Moreover, molecules that can disrupt interactions between oligomers and cell membranes are promising candidates for drug development.[56,57] Thus, we proceeded to probe the interactions of the Aβ42 oligomers with SH-SY5Y cellular membranes, in the absence and presence of the compounds, via confocal microscopy. […] Moreover, a lower concentration of Aβ42 (5 μM) or Aβ42–Cu (5 μM) were chosen to avoid significant cell death (Fig. S9b ^†). […]
RCSB database and optimized by minimal minimization with the OPLS3 force field using the Protein Preparation Wizard program. […] The calculated poses were ranked by both the docking score and Glide e-model energy, and the structures with the best docking scores and Glide e-model energies were rendered in […]

SMILES	Aβ fibrils binding to cell membranes (in words)
CN1CCN(C)CCN(Cc2cc(/C=C/c3ccc(-c4ccc(C=O)cc4)s3)ccc2O)CC1 [ZY-15-MT]	not able to significantly decrease the numbers of the Aβ fibrils binding to cell membranes
COc1cc(/C=C/c2ccc(-c3ccc(C=O)cc3)s2)cc(CN2CCN(C)CCN(C)CC2)c1O [ZY-15-OMe]	not able to significantly decrease the numbers of the Aβ fibrils binding to cell membranes
